Legend:
C57BL/6J mice [1] = experiment: Seizure assay; conditions: for seizures in seizure assay: C57BL/6J mice, sc injection, C6 quino at analgesic doses; for seizure occurrence: compared with known DOR agonists
DOR [2] = biological target: T1, DOR (Homo sapiens, UniProt P41143); type: cell-based; conditions: for potency at DOR: BRET based Gi-1 assay / G-protein pathways; for selectivity for DOR over other opioid subtypes: DOR vs KOR and MOR, BRET based Gi-1 assays; for G-protein bias: G-protein vs arrestin at DOR
T1 sequence (P41143 whole entry): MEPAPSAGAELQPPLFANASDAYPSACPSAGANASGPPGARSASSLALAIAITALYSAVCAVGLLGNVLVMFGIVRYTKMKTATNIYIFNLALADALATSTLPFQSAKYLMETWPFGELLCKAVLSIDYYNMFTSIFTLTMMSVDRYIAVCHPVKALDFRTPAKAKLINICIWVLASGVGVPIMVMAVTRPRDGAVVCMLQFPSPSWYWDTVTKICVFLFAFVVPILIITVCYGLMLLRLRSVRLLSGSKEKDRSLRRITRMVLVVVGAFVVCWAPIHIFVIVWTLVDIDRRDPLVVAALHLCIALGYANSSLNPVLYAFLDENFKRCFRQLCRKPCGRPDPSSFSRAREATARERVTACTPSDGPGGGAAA

DOR [3] = biological target: T1, DOR; type: cell-based; conditions: compared to DPDPE and C5 quino
DOR [4] = biological target: T1, DOR; type: cell-based; conditions: compared to DPDPE and C5 quino; remark: listed apart in the source
sciatic nerve ligation = experiment: Mechanical allodynia induced by sciatic nerve ligation; type: in vivo
Description: Mechanical allodynia induced by sciatic nerve ligation was reduced between 20 and 140 minutes after treatment with 30 mg/kg C6-quino sc. Supraspinal (icv) antinociception mediated by C6 quino is DOR dependent, yet C6-quino produced no seizures (B, top).

DOR [5] = biological target: T2, DOR (Mus musculus, UniProt P32300); type: in vivo
T2 construct: from tissue; host or cells: living animal, central nervous system (icv dosing)
T2 sequence (P32300 whole entry): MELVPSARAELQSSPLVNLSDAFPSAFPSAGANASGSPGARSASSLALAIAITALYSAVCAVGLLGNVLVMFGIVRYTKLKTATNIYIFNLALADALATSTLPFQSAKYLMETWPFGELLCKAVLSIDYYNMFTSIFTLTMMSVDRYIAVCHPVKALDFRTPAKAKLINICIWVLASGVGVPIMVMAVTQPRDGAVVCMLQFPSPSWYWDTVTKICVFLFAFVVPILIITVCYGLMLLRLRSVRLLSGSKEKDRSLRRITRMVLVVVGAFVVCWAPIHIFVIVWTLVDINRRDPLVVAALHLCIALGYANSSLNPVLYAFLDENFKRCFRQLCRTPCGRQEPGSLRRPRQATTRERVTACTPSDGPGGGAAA

PK assays = type: in vivo
[6] = In vivo analgesia / oral activity in chronic pain models; conditions: for Orally active: oral
DOR [7] = biological target: T1, DOR; type: cell-based; conditions: compared to known DOR orthosteric site binders
C57BL/6J mice [8] = experiment: Locomotor effects; conditions: sc injection, C6-quino 30 mg/kg sc
Microsomal stability = conditions: microsomes
C57BL/6J mice [9] = experiment: Respiratory depression; conditions: sc injection, morphine 10 mg/kg
C57BL/6J mice [10] = experiment: Rotarod assay (motor coordination); conditions: sc injection
KOR = KOR (Homo sapiens, UniProt P41145); experiment: BRET based Gi-1 assay, activation of KOR; type: cell-based
Sequence of KOR (P41145 whole entry): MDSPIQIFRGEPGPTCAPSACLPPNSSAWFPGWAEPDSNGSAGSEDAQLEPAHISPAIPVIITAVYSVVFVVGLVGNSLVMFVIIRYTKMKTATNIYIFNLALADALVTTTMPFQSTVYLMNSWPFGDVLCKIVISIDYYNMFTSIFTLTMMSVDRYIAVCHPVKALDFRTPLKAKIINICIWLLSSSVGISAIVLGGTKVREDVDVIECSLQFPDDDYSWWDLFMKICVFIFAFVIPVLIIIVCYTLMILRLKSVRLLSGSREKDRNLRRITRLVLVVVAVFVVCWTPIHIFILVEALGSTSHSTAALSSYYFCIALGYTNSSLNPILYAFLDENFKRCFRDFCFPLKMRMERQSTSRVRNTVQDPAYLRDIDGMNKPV

| SMILES | seizures in seizure assay (C57BL/6J mice [1]) | potency at DOR (DOR [2]) | selectivity for DOR over other opioid subtypes (DOR [2]) | G-protein bias (DOR [2]) | efficacy in chronic pain models [6] | Orally active [6] | functional profile (potency and efficacy) across DOR G protein subtypes and βarrestin-1 and 2 (DOR [7]) | seizure occurrence (C57BL/6J mice [1]) | locomotor activity (C57BL/6J mice [8]) | respiratory depression (C57BL/6J mice [9]) | activity at KOR (KOR) | further results |
| --- | --- | --- | --- | --- | --- | --- | --- | --- | --- | --- | --- | --- |
| C=CCN1C[C@H](C)N([C@H](c2ccc(C(=O)N(CC)CC)cc2)c2cccc(OC)c2)C[C@H]1C [SNC80, reference compound] | caused seizures | – | – | – | – | – | – | – | – | – | – | – |
| N=C(N)NCCCCCCN1CCC23c4c5ccc(O)c4O[C@H]2c2nc4ccccc4cc2C[C@@]3(O)C1C5 (stereo partly shown) [C6-Quino] | no seizures | high potency | selectivity for DOR over other opioid subtypes | G-protein biased | effective in chronic pain models | orally active | unique functional profiling | do not cause seizures | did not significantly differ from the vehicle at any time point | did not cause significant respiratory depression | – | intrinsic efficacy at DOR, G-protein (DOR [2]; compared to DPDPE and C5 quino): lower intrinsic efficacy; intrinsic efficacy at DOR, βarrestin-1 (DOR [3]): lower intrinsic efficacy; intrinsic efficacy at DOR, βarrestin-2 (DOR [4]): lower intrinsic efficacy; anti-allodynic effect in presence of NTB (sciatic nerve ligation; antagonist NTB): antagonized by NTB; anti-allodynic activity (sciatic nerve ligation; sciatic nerve ligation, mechanical allodynia): dose- and time-dependent anti-allodynic activity similar to gabapentin; supraspinal (icv) antinociception, receptor dependence (DOR [5]): DOR dependent; brain penetration (PK assays; PK assays): good; systemic availability (PK assays; PK assays): good; half-life (PK assays; in vivo): 2 h; Orally active ([6]; listed as 6C-Quino): YES; seizures (C57BL/6J mice [1]; FIG. 4B top): no seizures; half-life (Microsomal stability): > 2 h; sedation in rotarod assay (C57BL/6J mice [10]): no propensity to cause sedation |
| CN1CC[C@]23c4c5ccc(O)c4O[C@H]2[C@@H](O)C=C[C@H]3[C@H]1C5 [Morphine, reference compound] | – | – | – | – | – | – | – | – | hyperlocomotion | caused respiratory depression | – | – |
| N=C(N)NCCCCCN1CC[C@]23c4c5ccc(O)c4O[C@H]2c2[nH]c4ccccc4c2C[C@@]3(O)[C@H]1C5 [C5-Indole] | – | high potency | – | – | – | – | – | – | – | – | retained activity | – |
| N=C(N)NCCCCCN1CCC23c4c5ccc(O)c4O[C@H]2c2nc4ccccc4cc2C[C@@]3(O)C1C5 (stereo partly shown) [C5-Quino] | – | high potency | selectivity for DOR over other opioid subtypes | – | – | – | unique functional profiling | – | – | – | – | – |
| N=C(N)NCCCCCCN1CCC23c4c5ccc(O)c4O[C@H]2c2[nH]c4ccccc4c2C[C@@]3(O)C1C5 (stereo partly shown) [C6-Indole] | – | high potency | – | G-protein biased | effective in chronic pain models | orally active | – | do not cause seizures | – | – | retained activity | – |
